Experimental data taken from the supplement of paper PMC10307832.

Legend:
Experiment in all cases: relative viability (nuclei count vs DMSO), 5 days (fraction); higher = more cells survive
Dinaciclib + Pemetrexed = compound: CCc1cnn2c(NCc3ccc[n+]([O-])c3)cc(N3CCCC[C@H]3CCO)nc12 [Dinaciclib] + Nc1nc2[nH]cc(CCc3ccc(C(=O)N[C@@H](CCC(=O)O)C(=O)O)cc3)c2c(=O)[nH]1 [Pemetrexed] (partner 0.2 µM)
Outline: (§1)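 Values are medians from duplicate plates. Each reflects relative viability, defined as the nuclei count of treated wells over that of vehicle wells. Lung cancer cell lines in 1536-well plates were pin-tool dosed one day after seeding with one drug alone or with a fixed anchor-drug dose plus five library-drug doses (not always all listed) in √10 steps, then fixed, stained and imaged at 4× after 5 days.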

Dinaciclib + Decitabine = compound: CCc1cnn2c(NCc3ccc[n+]([O-])c3)cc(N3CCCC[C@H]3CCO)nc12 [Dinaciclib] + Nc1ncn([C@H]2C[C@H](O)[C@@H](CO)O2)c(=O)n1 [Decitabine] (partner 2 µM)
Outline: as §1

Dinaciclib + Olaparib = compound: CCc1cnn2c(NCc3ccc[n+]([O-])c3)cc(N3CCCC[C@H]3CCO)nc12 [Dinaciclib] + O=C(c1cc(Cc2n[nH]c(=O)c3ccccc23)ccc1F)N1CCN(C(=O)C2CC2)CC1 [Olaparib] (partner 8 µM)
Outline: as §1

Dinaciclib + Vorinostat = compound: CCc1cnn2c(NCc3ccc[n+]([O-])c3)cc(N3CCCC[C@H]3CCO)nc12 [Dinaciclib] + O=C(CCCCCCC(=O)Nc1ccccc1)NO [Vorinostat] (partner 1 µM)
Outline: as §1

Dinaciclib + Alpelisib = compound: CCc1cnn2c(NCc3ccc[n+]([O-])c3)cc(N3CCCC[C@H]3CCO)nc12 [Dinaciclib] + Cc1nc(NC(=O)N2CCC[C@H]2C(N)=O)sc1-c1ccnc(C(C)(C)C(F)(F)F)c1 [Alpelisib] (partner 2 µM)
Outline: as §1

| Cell Line | relative viability (Dinaciclib + Pemetrexed; first compound 0.009487 µM) | relative viability (Dinaciclib + Pemetrexed; first compound 0.03 µM) | relative viability (Dinaciclib + Pemetrexed; first compound 0.09487 µM) | relative viability (Dinaciclib + Pemetrexed; first compound 0.3 µM) | relative viability (Dinaciclib + Decitabine; first compound 0.009487 µM) | relative viability (Dinaciclib + Decitabine; first compound 0.03 µM) | relative viability (Dinaciclib + Decitabine; first compound 0.09487 µM) | relative viability (Dinaciclib + Decitabine; first compound 0.3 µM) | relative viability (Dinaciclib + Olaparib; first compound 0.009487 µM) | relative viability (Dinaciclib + Olaparib; first compound 0.03 µM) | relative viability (Dinaciclib + Olaparib; first compound 0.09487 µM) | relative viability (Dinaciclib + Olaparib; first compound 0.3 µM) | relative viability (Dinaciclib + Vorinostat; first compound 0.009487 µM) | relative viability (Dinaciclib + Vorinostat; first compound 0.03 µM) | relative viability (Dinaciclib + Vorinostat; first compound 0.09487 µM) | relative viability (Dinaciclib + Vorinostat; first compound 0.3 µM) | relative viability (Dinaciclib + Alpelisib; first compound 0.009487 µM) | relative viability (Dinaciclib + Alpelisib; first compound 0.03 µM) | relative viability (Dinaciclib + Alpelisib; first compound 0.09487 µM) | relative viability (Dinaciclib + Alpelisib; first compound 0.3 µM) |
| --- | --- | --- | --- | --- | --- | --- | --- | --- | --- | --- | --- | --- | --- | --- | --- | --- | --- | --- | --- | --- |
| 201T | 0.317 | 0.311 | 0.206 | 0.187 | 0.943 | 0.767 | 0.168 | 0.209 | 0.991 | 0.34 | 0.225 | 0.223 | 1.24 | 0.74 | 0.214 | 0.213 | 1.11 | 0.829 | 0.288 | 0.284 |
| NCI-H3122 | 0.245 | 0.106 | 0.0981 | 0.0956 | 0.404 | 0.117 | 0.121 | 0.107 | 0.579 | 0.0996 | 0.0974 | 0.0928 | 1.05 | 0.095 | 0.0953 | 0.0902 | 0.489 | 0.157 | 0.119 | 0.15 |
| A549 | – | – | – | – | 0.293 | 0.205 | 0.0304 | 0.0308 | 0.276 | 0.0567 | 0.0423 | 0.0382 | – | – | – | – | 0.686 | 0.0411 | 0.0487 | 0.0518 |
| NCI-H727 | – | – | – | – | 0.916 | 0.37 | 0.413 | 0.373 | 0.782 | 0.314 | 0.351 | 0.328 | 1.33 | 1.15 | 0.362 | 0.312 | 0.488 | 0.159 | 0.163 | 0.164 |
| NCI-H441 | 0.263 | 0.168 | 0.12 | 0.128 | 0.223 | 0.199 | 0.134 | 0.147 | 0.432 | 0.141 | 0.125 | 0.127 | 1.07 | 0.34 | 0.174 | 0.131 | 0.594 | 0.128 | 0.147 | 0.15 |
| HOP-62 | 0.255 | 0.0991 | 0.094 | 0.0662 | 0.204 | 0.21 | 0.0932 | 0.0689 | 0.295 | 0.0722 | 0.0964 | 0.0667 | 0.543 | 0.0919 | 0.0742 | 0.0609 | 0.828 | 0.27 | 0.0713 | 0.0692 |
| RERF-LC-KJ | 0.489 | 0.161 | 0.126 | 0.121 | 0.476 | 0.157 | 0.157 | 0.147 | 0.466 | 0.166 | 0.155 | 0.154 | 0.652 | 0.373 | 0.141 | 0.135 | 0.826 | 0.41 | 0.154 | 0.161 |
| HCC-44 | 0.665 | 0.695 | 0.388 | 0.351 | 0.804 | 0.406 | 0.344 | 0.317 | 1.07 | 0.556 | 0.361 | 0.272 | 1.24 | 1.04 | 0.368 | 0.319 | 0.677 | 0.095 | 0.133 | 0.118 |
